Assay results published in the NIST ThermoML archive (doi:10.1021/je500153g).

Assays:
[1] = xn = mol fraction of the nth substance listed; conditions: 101 kPa, Liquid; for viscosity: Concentric cylinders viscometry; for mass density: Vibrating tube method
[2] = 101 kPa, Liquid; for viscosity: Concentric cylinders viscometry; for mass density: Vibrating tube method

CC(C)O [propan-2-ol] + O=S1(=O)CCCC1
[1], x2 = 0
Conditions	mass density [kg/m3]	viscosity [mPa·s]
303.15 K	777.5	1.78
313.15 K	768.8	1.34
323.15 K	759.7	1.03
333.15 K	750	0.79
343.15 K	739.5	0.64

OCCOCCO [diethylene glycol]
[2]
Conditions	mass density [kg/m3]	viscosity [mPa·s]
303.15 K	1110	22.5
313.15 K	1103	14.9
323.15 K	1095.9	10.4
333.15 K	1088.5	7.6
343.15 K	1081.1	5.75

CCC(C)O (stereo not given) [butan-2-ol] + O=S1(=O)CCCC1
[1], x2 = 0
Conditions	mass density [kg/m3]	viscosity [mPa·s]
303.15 K	799.3	2.51
313.15 K	790.7	1.78
323.15 K	781.7	1.31
333.15 K	772.1	0.99
343.15 K	762	0.78

O=S1(=O)CCCC1 [sulfolane]
[2]
Conditions	mass density [kg/m3]	viscosity [mPa·s]
303.15 K	1262.9	10.4
313.15 K	1254.1	8.07
323.15 K	1245.2	6.45
333.15 K	1236.6	5.22
343.15 K	1228.1	4.32

CCC(C)O (stereo not given) [butan-2-ol]
[2]
Conditions	mass density [kg/m3]	viscosity [mPa·s]
303.15 K	799.3	2.51
313.15 K	790.7	1.78
323.15 K	781.7	1.31
333.15 K	772.1	0.99
343.15 K	762	0.78

OCCOCCO [diethylene glycol] + O=S1(=O)CCCC1
[1], x2 = 0
Conditions	mass density [kg/m3]	viscosity [mPa·s]
303.15 K	1110	22.5
313.15 K	1103	14.9
323.15 K	1095.9	10.4
333.15 K	1088.5	7.6
343.15 K	1081.1	5.75

OCCOCCOCCO [triethylene glycol]
[2]
Conditions	mass density [kg/m3]	viscosity [mPa·s]
303.15 K	1116.5	29.5
313.15 K	1108.9	19.3
323.15 K	1101.1	13.3
333.15 K	1093.4	9.58
343.15 K	1085.5	7.16

CC(C)O [propan-2-ol]
[2]
Conditions	mass density [kg/m3]	viscosity [mPa·s]
303.15 K	777.5	1.78
313.15 K	768.8	1.34
323.15 K	759.7	1.03
333.15 K	750	0.79
343.15 K	739.5	0.64

O=S1(=O)CCCC1 [sulfolane] + OCCOCCOCCO
[1], x1 = 1
Conditions	mass density [kg/m3]	viscosity [mPa·s]
303.15 K	1262.9	10.4
313.15 K	1254.1	8.07
323.15 K	1245.2	6.45
333.15 K	1236.6	5.22
343.15 K	1228.1	4.32
